{"source": "paper PMC5055303", "about": "“Identification and Tumour-Binding Properties of a Peptide with High Affinity to the Disialoganglioside GD2” (PLoS ONE, 2016)", "key": {"[1]": {"assay": "Phage binding assay on immobilized GD2", "design": "species or system human", "settings": "10 μg GD2 per well, 1 × 10^11 pfu phage, DPBS/Tween20 (0.3%), 1 h room temperature, Fig 1A-C", "protocol": "96-well microtiter plates (Greiner, Frickenhausen, Germany) were coated with 10 μg GD2 or 10 μg GD1b per well for one hour at room temperature. Wells were then washed 3 times with DPBS/Tween20 (0.05%), blocked with BSA (1%)/DPBS/Tween20 (0.05%) for 1 hour at room temperature, washed again and subsequently filled with H2O. Plates were stored at 8°C until use. For in vitro selection, 2 x 10^11 plaque forming units (pfu) of the unselected M13 Ph.D.-7 phage display peptide library or the phage pool of the subsequent selection rounds was incubated with DPBS/Tween20 (0.1%, 0.2%, 0,3% or 0,4%) in a GD1b coated well for 1 hour at room temperature on a shaker. The phage solution was then transferred to a well containing GD2 and incubated for 1 hour at room temperature. After washing 10 times with DPBS/Tween20 (0.1%, 0.2%, 0,3% or 0,4%), bound phages were eluted by addition of E. coli ER2738 (OD600nm 0.4–0.5) for 30 minutes at 37°C. Phage amplification in 20 ml suspension containing E. coli ER2738 (hereafter referred to as phage pool) and titer determination were performed according to the manufacturer’s instructions with the modification that X-Gal was replaced by S-Gal and ferric ammonium citrate (both obtained from Sigma, Taufkirchen, Germany). For in vivo selection, 2 x 10^11 pfu of the phage pool of the 3rd selection round were injected into the tail vein of a mouse with a xenograft tumour induced by inoculation of IMR32 cells (2 x 10^7). Anaesthetised mice were perfused with DPBS 10 min after phage application. Tumours were explanted, homogenized in LB-medium and the phages were eluted with 900 μl of an E. coli ER2738 suspension at 37°C for 30 minutes in an incubator. Of this suspension, 10 μl were used for the determination of the phage titer. The residual volume was used for phage amplification in 20 ml E. coli ER2738 suspension according to the manufacturer’s instructions. Wells were coated with GD3, GD2, GD1b, GT1b or BSA (10 μg/ well each). For competition experiments, coated wells were pre-incubated with serial dilutions ranging from 10 μg to 100 pg of an 11-mer GD2-specific-peptide in DPBS for one hour at room temperature on a shaker and the supernatant was removed. In total, 1 × 10^11 pfu of the amplified phages were incubated with DPBS/Tween20 (0.3%) for one hour at room temperature on a shaker. After washing with 10 volumes of DPBS/Tween20 (0.3%), bound phages were eluted by adding E. coli ER2738 and phage titer determination was performed as described above. Additionally, an in vivo competition assay was performed in tumour-bearing mice. Therefore, 200 μg of the GD2-specific peptide and 1×10^11 pfu of the phage encoding the same peptide were co-injected intravenously in three IMR32 tumour bearing mice per experiment. Tumours were subsequently harvested and the phage titers were determined as described above."}, "IMR32-induced xenografts [2]": {"system": "IMR32-induced xenografts", "settings": "1×10^11 pfu i.v., 10 min circulation; for phage recovery from tumour tissue: perfusion with DPBS, WHWRLPS-phage vs. control phage", "protocol": "Human IMR32 tumour cells were injected subcutaneously (s.c.) in the right and left femoral region of anesthetized NMRI nude mice (1×10^7 IMR32 cells in 50 μl DPBS and 150 μl Matrigel (BD)). For PET imaging, IMR32 cells were injected s.c. in the neck fold. Imaging and all other interventions were conducted on day 14 day after tumour cell inoculation.\nOf the GD2-specific phage or a control phage (GHGRLPS), 1×10^11 pfu were injected intravenously in three IMR32 tumour bearing mice per phage after an i.p. application of the anaesthetics xylazine (16 mg/kg) and ketamine (100 mg/kg). After 10 minutes, the mice were perfused with DPBS and brain, muscle, stomach, kidneys, heart, lung, spleen, liver and tumour were explanted and weighed. Tissues were homogenized in LB-medium using an Ultra-Turrax T25 homogenizer (IKA Labortechnik, Staufen, Germany). Phages were eluted by the addition of E.coli ER2738 bacteria and the phage titers were determined as described above."}, "[3]": {"assay": "In vitro competition of WHWRLPS-phage binding to GD2 by soluble peptide", "design": "species or system human", "settings": "Fig 2B", "protocol": "(§1) Wells were coated with GD3, GD2, GD1b, GT1b or BSA (10 μg/ well each). For competition experiments, coated wells were pre-incubated with serial dilutions ranging from 10 μg to 100 pg of an 11-mer GD2-specific-peptide in DPBS for one hour at room temperature on a shaker and the supernatant was removed. In total, 1 × 10^11 pfu of the amplified phages were incubated with DPBS/Tween20 (0.3%) for one hour at room temperature on a shaker. After washing with 10 volumes of DPBS/Tween20 (0.3%), bound phages were eluted by adding E. coli ER2738 and phage titer determination was performed as described above. Additionally, an in vivo competition assay was performed in tumour-bearing mice. Therefore, 200 μg of the GD2-specific peptide and 1×10^11 pfu of the phage encoding the same peptide were co-injected intravenously in three IMR32 tumour bearing mice per experiment. Tumours were subsequently harvested and the phage titers were determined as described above."}, "IMR32-induced xenografts [4]": {"system": "IMR32-induced xenografts", "assay": "In vivo competition of phage tumour homing by co-injected peptide", "design": "species or system NMRI nude mice", "settings": "i.v. coinjection of 200 μg peptide and 1×10^11 pfu WHWRLPS-phage, 10 min; compared to injection of phage only; Fig 2D", "protocol": "as §1"}, "[5]": {"system": "IMR32 neuroblastoma cells", "assay": "Cell proliferation / viability assay (MTT)", "assay_type": "cell-based, human", "settings": "1 μg or 10 μg/ml peptide, maximum reduction after 96 h and 10 μg/ml vs. unrelated control peptide, quintuplicate, Fig 2A", "protocol": "Proliferation of the human neuroblastoma cell line IMR32 upon peptide addition was evaluated using MTT assays as described. Peptides were used at a concentration of 1 μg and 10 μg per well in a total volume of 200 μl per well. For each time point and each peptide concentration, experiments and controls were performed in quintuplicate."}, "[6]": {"assay": "Phage binding assay on immobilized GD1b", "design": "species or system human", "settings": "10 μg GD1b per well, 1 × 10^11 pfu phage, 1 h room temperature, Fig 1A, 1B", "protocol": "96-well microtiter plates (Greiner, Frickenhausen, Germany) were coated with 10 μg GD2 or 10 μg GD1b per well for one hour at room temperature. Wells were then washed 3 times with DPBS/Tween20 (0.05%), blocked with BSA (1%)/DPBS/Tween20 (0.05%) for 1 hour at room temperature, washed again and subsequently filled with H2O. Plates were stored at 8°C until use. For in vitro selection, 2 x 10^11 plaque forming units (pfu) of the unselected M13 Ph.D.-7 phage display peptide library or the phage pool of the subsequent selection rounds was incubated with DPBS/Tween20 (0.1%, 0.2%, 0,3% or 0,4%) in a GD1b coated well for 1 hour at room temperature on a shaker. The phage solution was then transferred to a well containing GD2 and incubated for 1 hour at room temperature. After washing 10 times with DPBS/Tween20 (0.1%, 0.2%, 0,3% or 0,4%), bound phages were eluted by addition of E. coli ER2738 (OD600nm 0.4–0.5) for 30 minutes at 37°C. […]\nWells were coated with GD3, GD2, GD1b, GT1b or BSA (10 μg/ well each). […] Tumours were subsequently harvested and the phage titers were determined as described above."}, "IMR32-induced xenografts [7]": {"system": "IMR32-induced xenografts", "assay": "Distribution of 111In- and 68Ga-labelled DOTA peptides in vivo (gamma counter)", "design": "species or system NMRI nude mice", "protocol": "^111In was solved in HCl and a pH 3 was adjusted. DOTA peptides (100 μg) were diluted in the same volume of sodium acetate buffer (pH 5.0). Next, a 1:1 mixture (v/v) of the ^111In /HCl solution and the peptide solution was heated to 80°C for 10 minutes before applying it to a C18 reverse-phase cartridge (Strata™-X 33 μm Polymeric Reversed Phase, Phenomenex, Aschaffenburg, Germany). After washing twice with 5 ml water, elution of the ^111In–labelled peptide was achieved using ethanol abs. and volume was adjusted to 100 μl using isotonic NaCl solution.\n^111In—labelled DOTA peptides (200–700 kBq) or ^68Ga—labelled DOTA peptides (80–400 kBq) were injected intravenously into mice bearing IMR32-induced (2 x 10^7 cells s.c.) xenografts. Organs and blood of mice were collected between 5 min and 24 h after injection and their radioactive content was quantified using a gamma counter (Automatic Gamma Counter 1480 Wizard TM 3”). The injected dose was calculated by weighing the syringe with and without the tracer. Activity concentrations were corrected for radioactive decay. To evaluate the effects of kidney protection, a mixture containing Gelofusine (80μg/ g bodyweight)/lysine (400μg/ g weight)/arginine (400μg/ g weight) was injected i.v. 5 minutes before application of the tracer. Here, organs and blood were collected 1 h after injection. To compare ^68Ga -labelled peptides with the clinically established tracer, one group of tumour bearing mice received ^124I -MIBG (100–200 kBq) by intravenous injection."}, "[8]": {"assay": "Phage binding assay on immobilized GD3", "design": "species or system human", "settings": "10 μg GD3 per well; 1 × 10^11 pfu phage, 1 h room temperature; Fig 1B", "protocol": "as §1"}, "[9]": {"assay": "Phage binding assay on immobilized GT1b", "design": "species or system human", "settings": "10 μg GT1b per well; 1 × 10^11 pfu phage, 1 h room temperature; Fig 1B", "protocol": "as §1"}, "[10]": {"settings": "one hour after tracer injection, Fig 3C"}}}
{"compound": "GHWRLPS", "values": [{"measurement": "binding of phage to immobilized GD2 (phage output titer)", "setting": "[1]", "result": "impaired binding"}]}
{"compound": "GHGRLPS", "values": [{"measurement": "phage recovery from tumour tissue", "setting": "IMR32-induced xenografts [2]; Fig 2C", "result": "did not accumulate in tumour tissue"}, {"measurement": "binding of phage to immobilized GD2 (phage output titer)", "setting": "[1]", "result": "impaired binding"}]}
{"compound": "WHWRLPS [WHWRLPS-peptide]", "values": [{"measurement": "maximum reduction of WHWRLPS-phage binding to GD2", "setting": "[3]; in the presence of 10 μg peptide, wells pre-incubated with peptide 1 h", "result": 82, "unit": "%"}, {"measurement": "peptide concentration sufficient to significantly reduce phage binding to GD2", "setting": "[3]; lowest dilution of the series 10 μg to 100 pg, p < 0.05 vs. 0 μg peptide", "result": 100, "unit": "pg/mL"}, {"measurement": "reduction of WHWRLPS-phage recovery from tumour tissue", "setting": "IMR32-induced xenografts [4]", "result": 84, "unit": "%"}, {"measurement": "effect on IMR32 cell viability", "setting": "[5]", "result": "reduce cell viability"}]}
{"compound": "WHWRLGS", "values": [{"measurement": "binding of phage to immobilized GD2 (phage output titer)", "setting": "[1]", "result": "impaired binding"}]}
{"compound": "WHWRLPS [WHWRLPS-phage, M13 phage clone displaying the hepta-peptide WHWRLPS]", "values": [{"measurement": "binding of phage to immobilized GD1b", "setting": "[6]; listed as phage 7", "result": "lower affinity"}, {"measurement": "phage recovery from tumour tissue", "setting": "IMR32-induced xenografts [2]; Fig 2C", "result": "Significantly higher amounts"}, {"measurement": "organs with phage accumulation", "setting": "IMR32-induced xenografts [2]; attributed to mononuclear phagocytic system", "result": "liver, the spleen and, to a lesser extent, in the lung"}, {"measurement": "phage recovery from other organs", "setting": "IMR32-induced xenografts [2]; compared with control phage (GHGRLPS), Fig 2C", "result": "lower than that of the control"}, {"measurement": "binding of phage to immobilized GD2 (phage output titer)", "setting": "[1]", "result": "specifically bound"}, {"measurement": "binding of phage to immobilized GD2 (phage output titer)", "setting": "[1]; listed as phage 7", "result": "high affinity"}]}
{"compound": "N=C(N)NCc1cccc([131I])c1", "note": "[124I-MIBG, metaiodobenzylguanidine, reference compound]", "values": [{"measurement": "accumulation in tumour tissue, 124I-MIBG vs. 68Ga-labelled peptide", "setting": "IMR32-induced xenografts [7]; [10]", "result": "comparable for both tracers"}, {"measurement": "activity concentration in blood, 124I-MIBG vs. 68Ga-labelled peptide", "setting": "IMR32-induced xenografts [7]; [10]", "result": "higher"}, {"measurement": "tissue with highest accumulation", "setting": "IMR32-induced xenografts [7]; one hour after tracer injection, thyroid not blocked, Fig 3C", "result": "thyroid"}]}
{"compound": "WHWRLPS-DOTA [68Ga-labelled WHWRLPS peptide, WHWRLPS-DOTA peptide labelled with 68Ga]", "values": [{"measurement": "accumulation in tumour tissue, 124I-MIBG vs. 68Ga-labelled peptide", "setting": "IMR32-induced xenografts [7]; mouse, in vivo", "result": "comparable for both tracers"}, {"measurement": "tissue with highest accumulation", "setting": "IMR32-induced xenografts [7]; mouse, in vivo", "result": "kidney"}, {"measurement": "radioactive load in the kidneys with kidney protection", "setting": "IMR32-induced xenografts [7]; mouse, in vivo, iv", "result": "reduced"}, {"measurement": "radioactivity in the blood with kidney protection", "setting": "IMR32-induced xenografts [7]; mouse, in vivo, iv", "result": "higher accumulation"}, {"measurement": "tumour-specific uptake, 68Ga- vs. 111In-labelled peptide", "setting": "IMR32-induced xenografts [7]; mouse, in vivo, iv", "result": "higher tumour-specific uptake"}, {"measurement": "uptake across tissues in comparison to 111In-labelled peptides", "setting": "IMR32-induced xenografts [7]; mouse, in vivo, iv", "result": "higher uptake across all tissues"}]}
{"compound": "WHGRLPS", "values": [{"measurement": "binding of phage to immobilized GD2 (phage output titer)", "setting": "[1]", "result": "impaired binding"}]}
{"compound": "GHGRLGS", "values": [{"measurement": "binding of phage to immobilized GD2 (phage output titer)", "setting": "[1]", "result": "impaired binding"}]}
{"compound": "HAIYPRH [phage 2, reference compound]", "values": [{"measurement": "binding of phage to immobilized GD3", "setting": "[8]", "result": "did not bind"}, {"measurement": "binding of phage to immobilized GD1b", "setting": "[6]", "result": "did not bind"}, {"measurement": "binding of phage to immobilized GT1b", "setting": "[9]", "result": "did not bind"}, {"measurement": "binding of phage to immobilized GD2 (phage output titer)", "setting": "[1]", "result": "did not bind"}]}
